Measured values taken from EP0468504B1, “A novel antibiotic, balhimycin, a process for its production and its use as pharmaceutical” (HOECHST AKTIENGESELLSCHAFT, priority 1990, dated 1992).
Where a name gives a salt, the structure may show the parent alone.

What was measured:
Assay in all cases: MIC, antibacterial activity
Type in all cases: cell-based
S. aureus (MethR) = test system: S. aureus (MethR)
P. vulgaris = test system: P. vulgaris
E. coli 9632 = test system: E. coli 9632
Ps. aeruginosa = test system: Ps. aeruginosa
S. aureus 209 P = test system: S. aureus 209 P
S. epi. 825 = test system: S. epi. 825
S. aureus 3066 (MethR) = test system: S. aureus 3066 (MethR)
Staph. epidermidis 178 = test system: Staph. epidermidis 178
[1] = test system: Streptococcus faecalis ATCC 29212
S. faecium D-59 = test system: S. faecium D-59
S. faecium D-65 = test system: S. faecium D-65
S. faec. D Endococcen = test system: S. faec. D Endococcen
Staph. haemolyticus 712 = test system: Staph. haemolyticus 712
[2] = test system: S. epi. 823 (Teicoplanin R)
S. aureus E 690 (MethR) = test system: S. aureus E 690 (MethR)
S. faec. D 21777 = test system: S. faec. D 21777
[3] = test system: S. haemo. 809 (Teicoplanin R)

Compound: CNC(CC(C)C)C(=O)NC1C(=O)NC(CC(N)=O)C(=O)NC2C(=O)NC3C(=O)NC(C(=O)NC(C(=O)O)c4cc(O)cc(O)c4-c4cc3ccc4O)C(OC3C[C@](C)(N)C(=O)C(C)O3)c3ccc(c(Cl)c3)Oc3cc2cc(c3OC2O[C@H](CO)C(O)[C@H](O)C2O)Oc2ccc(cc2Cl)C1O (some centres unmarked) [Balhimycin trifluoroacetate, Balhimycin]
- MIC (S. aureus (MethR)): 0.39 µg/mL
- MIC (P. vulgaris): >100 µg/mL
- MIC (E. coli 9632): >100 µg/mL
- MIC (Ps. aeruginosa): >100 µg/mL
- MIC (S. aureus 209 P): 0.39 µg/mL
- MIC (S. epi. 825): 3.12 µg/mL
- MIC (S. aureus 3066 (MethR)): 0.78 µg/mL
- MIC (Staph. epidermidis 178): 1.56 µg/mL
- MIC [1]: 1.56 µg/mL
- MIC (S. faecium D-59): 1.56 µg/mL
- MIC (S. faecium D-65): 0.78 µg/mL
- MIC (S. faec. D Endococcen): 0.78 µg/mL
- MIC (Staph. haemolyticus 712): 1.56 µg/mL
- MIC [2]: 12.5 µg/mL
- MIC (S. aureus E 690 (MethR)): 0.39 µg/mL
- MIC (S. faec. D 21777): 0.78 µg/mL
- MIC [3]: 6.25 µg/mL
